ChEMBL document CHEMBL1127488, “Interaction of tetrahydrostilbazoles with monoamine oxidase A and B” (J Med Chem, 1994)

Molecular target: T1, Amine oxidase [flavin-containing] A (Homo sapiens, UniProt P21397)
T1 sequence (P21397 whole entry): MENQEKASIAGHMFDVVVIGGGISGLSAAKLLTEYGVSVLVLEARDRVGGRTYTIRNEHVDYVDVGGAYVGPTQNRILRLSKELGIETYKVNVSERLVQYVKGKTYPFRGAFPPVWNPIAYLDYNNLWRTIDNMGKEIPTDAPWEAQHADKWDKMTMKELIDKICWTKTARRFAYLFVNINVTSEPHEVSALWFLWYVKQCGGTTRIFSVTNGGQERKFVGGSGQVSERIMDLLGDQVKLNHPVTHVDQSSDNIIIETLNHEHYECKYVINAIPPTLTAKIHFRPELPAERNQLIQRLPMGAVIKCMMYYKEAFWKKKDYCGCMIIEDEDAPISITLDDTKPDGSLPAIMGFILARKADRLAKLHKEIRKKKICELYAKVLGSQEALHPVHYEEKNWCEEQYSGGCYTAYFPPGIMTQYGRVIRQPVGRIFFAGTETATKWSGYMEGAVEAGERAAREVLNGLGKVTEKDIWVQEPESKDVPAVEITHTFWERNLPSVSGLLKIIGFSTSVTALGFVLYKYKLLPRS
Assay: Compound was tested for the inhibition of monoamine oxidase A (MAO A) from human liver

Molecule `C[C@@H]1NC(=O)[C@H](NC(=O)[C@@H](N)Cc2ccc(O)cc2)C(C)(C)SSC(C)(C)[C@@H](C(O)O)NC(=O)[C@H](Cc2ccccc2)NC1=O` has a Ki of 2000 nM.
